Experimental data: patent publication US8802433B2, “Macrophage phagocytosis-activating composition and/or composition promoting cytokine production in macrophages” (Aureo Co., Ltd., priority 2009, dated 2014)

Key:
[1] = system: THP-1 cells differentiated into macrophage-like cells; test: Ability of macrophage-like cells to phagocytose polystyrene beads; assay type: cell-based, human; conditions: 500-fold vs 1000-fold dilution; 1 μM vs 10 μM
Experimental: THP-1 cells (refer to FIG. 1 (A)) were seeded in a 24-well plate (Becton Dickinson Labware, Franklin Lakes, N.J.) at 2×10^5 cells/mL per well, and phorbol 12-myristate 13-acetate (PMA) (Wako) was added to each well so as to have a final concentration of 160 nM, and incubated at 37° C. under 5% CO2 for 72 hours, to give macrophage-like cells (refer to FIG. 1 (B)). After incubation, the cells were washed twice with sterilized PBS in order to remove undifferentiated THP-1 cells, and a fresh medium was added thereto, and the mixture was subjected to an experiment. The THP-1 cells differentiated into macrophage-like cells were prepared in a 24-well plate by the method of Test Example 1. Thereto were each added 500-fold and 1000-fold dilutions as final concentration of an Aureobasidium culture fluid, and the mixture was incubated for 4 hours. […] Thereafter, beads with a diameter of 10 μm were added to each well at a final concentration of 2 μL/mL (Trade name “Polybeads dyed violet” manufactured by Polysciences, Inc.), and the mixture was incubated for 3 hours to allow phagocytosis of the beads by the cells. After the incubation, each well was washed 3 times with sterilized PBS in order to remove beads that were not phagocyted. […] The number of beads phagocyted by the macrophage-like cells was measured with a phase contrast microscope. […]

[2] = system: macrophage-like cells; test: TNF-α secretion from macrophage-like cells (ELISA); assay type: cell-based, human; conditions: added independently or in combination; ELISA of culture fluid
From the text: Since the increase in phagocytosis of macrophage-like cells by the Aureobasidium culture fluid or Compound 1 was inferred to be the result of activity induction in the macrophage-like cells, it was attempted to see if it is true. Specifically, regarding TNF-α, a type of cytokines released by activity induction, how much this substance was secreted into a culture fluid of the macrophage-like cells to which the Aureobasidium culture fluid, Compound 1, or the Aureobasidium culture fluid plus Compound 1 was added was measured by ELISA according to an ordinary method.

[3] = system: THP-1 cells differentiated into macrophage-like cells; test: Cytokine gene expression in macrophage-like cells (RT-PCR, agarose gel electrophoresis); assay type: cell-based, human; conditions: 7 hours, compared to group a (control)
Experimental: Regarding TNF-α, IL-6, IL-12B, and IL-18, cytokines released when macrophage-like cells underwent activity induction, how much mRNA for these substances expressed in the macrophage-like cells to which the Aureobasidium culture fluid, Compound 1, or the Aureobasidium culture fluid plus Compound 1 was added was measured by RT-PCR according to an ordinary method. Specifically, first, the THP-1 cells differentiated into macrophage-like cells by the method of Test Example 1 were washed twice with PBS to remove undifferentiated THP-1 cells, and then divided into 9 groups, group a, group b, group c, group d, group e, group f, group g, group h, and group i. Subsequently, the Aureobasidium culture fluid and/or Compound 1 was added to each group so as to have the final concentrations as follows, and the mixture was incubated for 7 hours. Next, each group was washed with PBS, thereafter, 1 mL of Trizol (Invitrogen) was added to each, and the mixture was well suspended and left at room temperature for 5 minutes. […] After left at room temperature for 2 minutes, the mixture was centrifuged at 12000×g at 4° C. for 10 minutes. After centrifugation, 400 μL of the upper layer was collected and transferred to a new Eppendorf tube for 1.5 mL, and 500 μL of 2-propanol (Wako) was added and stirred, and then left at room temperature for 5 minutes. […] Thereafter, the mixture was centrifuged at 12000×g at 4° C. for 10 minutes. After centrifugation, the upper layer was discarded, 75% ethanol was added to the precipitate, and the mixture was centrifuged at 12000×g at 4° C. for 10 minutes. After centrifugation, the upper layer was discarded, and the resultant was suspended in 20 μL of milliQ water, thereby collecting the total mRNA. Subsequently, using the total mRNA of each group as a template, RT-PCR was performed using TaKaRa RNA PCR Kit (AMV) Ver 3.0 (TaKaRa), to prepare a template cDNA of each sample. The RT-PCR reaction solution composition and RT-PCR reaction conditions are as described below. […] RT reaction conditions: after reaction at 42° C. for 30 minutes, respective reactions at 95° C. for 5 minutes and 5° C. for 5 minutes were performed for 1 cycle using a thermal cycler (Bio Flux). Subsequently, PCR was performed using the template cDNA of each group as a template, to amplify each cDNA of TNF-α, IL-6, IL-12B, IL-18, and glyceraldehyde-3-phosphate dehydrogenase (GAPDH). Primers, the PCR reaction solution composition, and PCR reaction conditions are as described below. PCR reaction solution composition: 5×PCR buffer 10 μL, milliQ 28.75 μL, Ex Taq 0.25 μL, sense primer 0.5 μL, antisense primer 0.5 μL, whole amount of template cDNA of each sample. PCR reaction conditions: after reaction at 94° C. for 2 minutes, with respective reactions at 94° C. for 30 seconds, 60° C. for 30 seconds, and 72° C. for 1 minute as 1 cycle, 35 cycles were performed. Thereafter, the amount of PCR reaction product was confirmed by performing agarose gel electrophoresis according to the conventional method, whereby the expression levels of mRNA for TNF-α, IL-6, IL-12B, IL-18, and glyceraldehyde-3-phosphate dehydrogenase (GAPDH) were confirmed.

[4] = in vitro; assay type: cell-based; conditions: human
Experimental: In the following Test Examples, the human monocytic leukemia cell line THP-1 or human leukemia T cell line, Jurkat cell line was incubated at 37° C. under 5% CO2 for culture in the RPMI 1640 medium (containing 10% fetal bovine serum (FBS), 75 mg/L kanamycin, and 3.5 μL/L 2-mercaptoethanol).
In order to study the cytotoxicity of 5-FU on Jurkat cells, 5-FU was studied by MTT method. Jurkat cells prepared as 2.0×10^5 cells/mL were placed in a 96-well plate (Corning). 5-FU was added thereto so as to have final concentrations of 0, 10, 100, and 1000 μM, and the cells were then exposed thereto in a CO2 incubator at 37° C. for 24 hours. At the time point of the exposure over 23 hours, 10 μL of 3-[4,5-dimethylthiazol-2-yl]-2,5-diphenyltet-razolium bromide (MTT solution) (Wako) was added to each well, and the cells were then exposed thereto at 37° C. for 1 hour. After the exposure, the mixture was centrifuged at 1200 rpm for 5 minutes, the supernatant was discarded, 100 μL per well of DMSO was added, and the mixture was measured for absorbance at 570 nm using a microplate reader. […] Therefore, DMSO was added to dissolve the formazan precipitate, and the absorbance of the solution was measured at 570 nm. When the cells are alive, formazan is produced, and thus the solution can be measured at 570 nm.

[5] = system: Jurkat cells; test: Exposure of phosphatidylserine in apoptotic Jurkat cells (Annexin V / propidium iodide, flow cytometry); assay type: cell-based, human; conditions: Jurkat cells exposed to 250 μM 5-FU (250 μM or 500 μM tested), 24 hours
Experimental: Whether the cytotoxicity of 5-FU on Jurkat cells was caused by apoptosis was studied. In early apoptosis, phosphatidylserine (PS) localized on the inside of cell membrane exposes to the outside. PS is a molecule also relating to the recognition and phagocytosis of apoptotic cells by macrophages. The PS exposure is measured, whereby induction of early apoptosis can be confirmed. In late apoptosis, the cell membrane breaks, and the internal components leak out thereof. Therefore, the cells are combined with propidium iodide (PI) which is a membrane impermeable fluorescent dye, whereby the late apoptotic cells and early apoptotic cells can be clearly separated (refer to FIG. 3).

SMILES	working concentration giving higher phagocytosis of polystyrene beads [1]	TNF-α secreted as compared to the case of adding nothing [2]	expression level of mRNA for IL-12B ([3]; group b: Compound 1 1 μM)	expression level of mRNA for IL-18 ([3]; group b: Compound 1 1 μM)	expression level of mRNA for TNF-α ([3]; group b: Compound 1 1 μM)	expression level of mRNA for IL-6 ([3]; group c: Compound 1 10 μM)	expression level of mRNA for IL-12B ([3]; group c: Compound 1 10 μM)	expression level of mRNA for IL-18 ([3]; group c: Compound 1 10 μM)	IC50 at 24 h [4]	PS exposure (early apoptosis) [5]
CCOCc1nc2c(N)nc3ccccc3c2n1CC(C)(C)O [Compound 1, 4-Amino-2-(ethoxymethyl)-a,a-dimethyl-1H-imidazo[4,5-c]quinoline-1-ethanol]	higher for 1 μM	larger amount	increased	increased	increased	increased	increased	increased	–	–
O=c1[nH]cc(F)c(=O)[nH]1 [Compound 5-FU, 5-fluorouracil]	–	–	–	–	–	–	–	–	450 µM	much PS exposure
